Results from patent publication US10619138B2, “Herbicide-resistant hydroxyphenylpyruvate dioxygenases” (BASF SE, priority 2013, dated 2020).
“And” between values parts separate entries of the source, which are not always exact repeats. Identical values can stand only once.

How the values were obtained:
[1] = test system: Mucilaginibacter HPPD (SEQ ID NO: 28); assay: In vitro HPPD activity assay, tolerance index; assay type: biochemical, Mucilaginibacter paludis; conditions: normalized on Arabidopsis wild-type HPPD
Experimental: (§1) The activity assay for HPPD is based on the analysis of homogentisic acid by reversed phase HPLC.
(§2) The assay mixture can contain 150 mM potassium phosphate buffer pH 7.0, 50 mM L-ascorbic acid, 100 μM Catalase (Sigma-Aldrich), 1 μM FeSO4 and 0.2 units of purified HPPD enzyme in a total volume of 505 μl. 1 unit is defined as the amount of enzyme that is required to produce 1 nmol of HGA per minute at 20° C.
(§3) The reaction is allowed to proceed for 45 min at room temperature. The reaction is stopped by the addition of 50 μl of 4.5 M phosphoric acid. The sample is filtered using a […] pore size PVDF filtration device.
(§4) 5 μl of the cleared sample is analyzed on an UPLC HSS T3 column (particle size 1.8 μm, dimensions 2.1×50 mm; Waters) by isocratic elution using 90% 20 mM NaH2PO4 pH 2.2, 10% methanol (v/v).
(§5) HGA is detected electrochemically at 750 mV (mode: DC; polarity: positive) and quantified by integrating peak areas (Empower software; Waters).
(§6) Inhibitors are dissolved in DMSO (dimethylsulfoxide) to a concentration of 0.5 mM. From this stock solution serial five-fold dilutions are prepared in DMSO, which are used in the assay. The respective inhibitor solution accounts for 1% of the assay volume. Thus, final inhibitor concentrations range from 5 μM to 320 pM, respectively. Activities are normalized by setting the uninhibited enzyme activity to 100%. IC50 values are calculated using non-linear regression.
(§7) Using methods which are described in the above examples or well known in the art, purified, recombinant wildtype HPPD enzymes are characterized with respect to their kinetic properties and sensitivity towards HPPD inhibiting herbicides. Apparent michaelis constants (Km) and maximal reaction velocities (Vmax) are calculated by non-linear regression with the software GraphPad Prism 5 (GraphPad Software, La Jolla, USA) using a substrate inhibition model. […] Weighted means (by standard error) of Km and IC50 values are calculated from at least three independent experiments. The Cheng-Prusoff equation for competitive inhibition (Cheng, Y. C.; Prusoff, W. H. Biochem Pharmacol 1973, 22, 3099-3108) is used to calculate dissociation constants (Ki).
(§8) Field performance of the HPPD enzyme, which is used as a herbicide tolerance trait may depend not only on its lack of sensitivity towards HPPD inhibiting herbicides but also on its activity. To assess the potential performance of a herbicide tolerance trait a tolerance index (TI) is calculated using the following formula: […]
(§9) Easy comparison and ranking of each trait is enabled by normalizing tolerance indexes on Arabidopsis wild-type HPPD.

[2] = test system: Microscilla HPPD (SEQ ID NO: 20); assay: In vitro HPPD activity assay, tolerance index; assay type: biochemical, Microscilla marina; conditions: normalized on Arabidopsis wild-type HPPD
Experimental: as §1, §2, §3, §4, §5, §6, §7, §8, §9

[3] = test system: Nitritalea HPPD (SEQ ID NO: 14); assay: In vitro HPPD activity assay, tolerance index; assay type: biochemical, Nitritalea halalkaliphila; conditions: normalized on Arabidopsis wild-type HPPD
Experimental: as §1, §2, §3, §4, §5, §6, §7, §8, §9

[4] = test system: Geodermatophilus HPPD (SEQ ID NO: 32); assay: In vitro HPPD activity assay, tolerance index; assay type: biochemical, Geodermatophilus obscurus; conditions: normalized on Arabidopsis wild-type HPPD
Experimental: as §1, §2, §3, §4, §5, §6, §7, §8, §9

[5] = test system: Scenedesmus HPPD (SEQ ID NO: 4); assay: In vitro HPPD activity assay, tolerance index; assay type: biochemical, Scenedesmus obliquus; conditions: normalized on Arabidopsis wild-type HPPD
Experimental: as §1, §2, §3, §4, §5, §6, §7, §8, §9

[6] = test system: Pontibacter HPPD (SEQ ID NO: 16); assay: In vitro HPPD activity assay, tolerance index; assay type: biochemical, Pontibacter sp.; conditions: normalized on Arabidopsis wild-type HPPD
Experimental: as §1, §2, §3, §4, §5, §6, §7, §8, §9

[7] = biological target: T1, Arabidopsis HPPD (SEQ ID NO: 42) (Arabidopsis thaliana, UniProt P93836); assay: In vitro HPPD activity assay (HGA by HPLC), wildtype enzyme characterization; assay type: biochemical; conditions: for TI (normalized tolerance index): normalized on Arabidopsis wild-type HPPD, reference enzyme
T1 construct: Arabidopsis (42); His tag; made in house; host or cells: E. coli BL21 (DE3)
T1 sequence (P93836 1-445): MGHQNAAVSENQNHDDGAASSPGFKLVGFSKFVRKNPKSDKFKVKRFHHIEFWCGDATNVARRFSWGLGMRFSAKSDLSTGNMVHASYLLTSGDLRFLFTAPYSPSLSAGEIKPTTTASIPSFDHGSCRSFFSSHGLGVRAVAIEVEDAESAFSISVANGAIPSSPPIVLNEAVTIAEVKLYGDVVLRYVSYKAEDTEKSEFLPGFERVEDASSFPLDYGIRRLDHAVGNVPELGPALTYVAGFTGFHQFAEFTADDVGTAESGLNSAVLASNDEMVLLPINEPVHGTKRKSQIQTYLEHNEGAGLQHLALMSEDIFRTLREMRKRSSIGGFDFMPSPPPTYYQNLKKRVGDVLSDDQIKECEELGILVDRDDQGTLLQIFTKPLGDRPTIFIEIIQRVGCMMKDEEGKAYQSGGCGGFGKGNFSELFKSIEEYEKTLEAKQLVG
Experimental: as §1, §2, §3, §4, §5
as §6, with “Thus, final inhibitor concentrations range from 5 μM to 320 pM, respectively.” left out
as §7, with “experiments.” for “experiments. The Cheng-Prusoff equation for competitive inhibition (Cheng, Y. C.; Prusoff, W. H. Biochem Pharmacol 1973, 22, 3099-3108) is used to calculate dissociation constants (Ki).”
as §8, §9

[8] = test system: Belliella HPPD (SEQ ID NO: 12); assay: In vitro HPPD activity assay, tolerance index; assay type: biochemical, Belliella baltica; conditions: normalized on Arabidopsis wild-type HPPD
Experimental: as §1, §2, §3, §4, §5, §6, §7, §8, §9

[9] = test system: Algoriphagus HPPD (SEQ ID NO: 22); assay: In vitro HPPD activity assay, tolerance index; assay type: biochemical, Algoriphagus machipongonensis; conditions: normalized on Arabidopsis wild-type HPPD
Experimental: as §1, §2, §3, §4, §5, §6, §7, §8, §9

[10] = test system: Herpetosiphon HPPD (SEQ ID NO: 26); assay: In vitro HPPD activity assay, tolerance index; assay type: biochemical, Herpetosiphon aurantiacus; conditions: normalized on Arabidopsis wild-type HPPD
Experimental: as §1, §2, §3, §4, §5, §6, §7, §8, §9

[11] = test system: Acidobacterium HPPD (SEQ ID NO: 30); assay: In vitro HPPD activity assay, tolerance index; assay type: biochemical, Acidobacterium capsulatum; conditions: normalized on Arabidopsis wild-type HPPD
Experimental: as §1, §2, §3, §4, §5, §6, §7, §8, §9

[12] = test system: transgenic Arabidopsis plants expressing Scenedesmus HPPD; assay: Greenhouse herbicide spray test, transgenic plants (T2); assay type: in vivo, Arabidopsis thaliana; conditions: two weeks after treatment
Source text: (§10) Additionally, T1 and T2 transgenic Arabidopsis plants can be tested for improved tolerance to HPPD-inhibiting herbicides in greenhouse studies. Herbicide injury scoring is done 2-3 weeks after treatment and is rated on a scale of 0 to 100%, 0% being no injury and 100% being complete death.
(§11) Transgenic Arabidopsis plants were sprayed with a range of doses from 1.56-50 g/ha with HPPD-inhibiting herbicides and injury evaluations were taken two weeks after treatment. […] As depicted in Table 6, control plants are severely injured by all doses of herbicide applied, with at least 70% of leaf material being damaged at the lowest application rate. For example, transgenic plants expressing Scenedesmus HPPD have an excellent tolerance to all herbidcides tested. […] After application of Inhibitor 2, only 18% of leaf material was damaged resulting in a 5-fold tolerance compared to the WT at the highest application rate.

[13] = test system: transgenic Arabidopsis plants expressing Acidobacterium HPPD; assay: as above; assay type: in vivo, Arabidopsis thaliana; conditions: two weeks after treatment
Source text: as §10, §11

[14] = test system: transgenic Arabidopsis plants expressing Algoriphagus HPPD; assay: as above; assay type: in vivo, Arabidopsis thaliana; conditions: two weeks after treatment
Source text: as §10, §11

[15] = test system: untransformed wild-type (WT) Arabidopsis plants; assay: Greenhouse herbicide spray test, wild-type plants; assay type: in vivo, Arabidopsis thaliana; conditions: two weeks after treatment, mean of three plants
Source text: as §10, §11

COCCOCc1nc(C(F)(F)F)ccc1C(=O)C1=C(O)C2CCC(C2)C1=O (centres unmarked) [Inhibitor 3, 2-hydroxy-3-[2-(2-methoxyethoxymethyl)-6-(trifluoromethyl)pyridine-3-carbonyl]bicyclo[3.2.1]oct-2-en-4-one]
TI (normalized tolerance index) [1]: 6.9
TI (normalized tolerance index) [2]: 6.7
TI (normalized tolerance index) [3]: 1.1
TI (normalized tolerance index) [4]: 7.4
TI (normalized tolerance index) [5]: 0.9
TI (normalized tolerance index) [6]: 1.7
TI (normalized tolerance index) [7]: 1
TI (normalized tolerance index) [8]: 10
TI (normalized tolerance index) [9]: 29
TI (normalized tolerance index) [10]: 2

CCS(=O)(=O)c1cc(C(F)(F)F)ccc1C1=C(O)c2ncccc2C(C)(C)S1(=O)=O [Inhibitor 5, 7-[2-ethylsulfonyl-4-(trifluoromethyl)phenyl]-5,5-dimethyl-6,6-dioxo-thiopyrano[4,3-b]pyridin-8-ol]
TI (normalized tolerance index) [1]: 5.2
TI (normalized tolerance index) [2]: 17.7
TI (normalized tolerance index) [3]: 3.2
TI (normalized tolerance index) [4]: 5.6
TI (normalized tolerance index) [5]: 0.6
TI (normalized tolerance index) [6]: 2.5
TI (normalized tolerance index) [7]: 1
TI (normalized tolerance index) [8]: 10.6
TI (normalized tolerance index) [9]: 24.7
TI (normalized tolerance index) [10]: 1

CC(=O)N(C)c1c(Cl)ccc(C2=C(O)c3ncccc3C(C)(C)S2(=O)=O)c1Cl [Inhibitor 6, N-[2,6-dichloro-3-(8-hydroxy-5,5-dimethyl-6,6-dioxo-thiopyrano[4,3-b]pyridin-7-yl)phenyl]-N-methyl-acetamide]
TI (normalized tolerance index) [1]: 3.1
TI (normalized tolerance index) [2]: 14.7
TI (normalized tolerance index) [4]: 3.4
TI (normalized tolerance index) [5]: 0.3
TI (normalized tolerance index) [6]: 1.5
TI (normalized tolerance index) [7]: 1
TI (normalized tolerance index) [8]: 7.6
TI (normalized tolerance index) [9]: 29.7
TI (normalized tolerance index) [10]: 1.2

CC1(C)c2cccnc2C(O)=C(c2c(F)ccc(Cl)c2Br)S1(=O)=O [Inhibitor 9, 7-(2-bromo-3-chloro-6-fluoro-phenyl)-5,5-dimethyl-6,6-dioxo-thiopyrano[4,3-b]pyridin-8-ol]
TI (normalized tolerance index) [2]: 22.8
TI (normalized tolerance index) [11]: 20 and 20.2
TI (normalized tolerance index) [4]: tolerant
TI (normalized tolerance index) [6]: 3.9
TI (normalized tolerance index) [7]: 1
TI (normalized tolerance index) [9]: 42.8
TI (normalized tolerance index) [10]: tolerant

Cc1c(C(=O)c2cnn(C)c2O)ccc(S(C)(=O)=O)c1C1=NOCC1 [Inhibitor 1, [3-(4,5-dihydroisoxazol-3-yl)-2-methyl-4-methylsulfonyl-phenyl]-(5-hydroxy-1-methyl-pyrazol-4-yl)methanone]
TI (normalized tolerance index) [1]: 56.8
TI (normalized tolerance index) [2]: 9.1
TI (normalized tolerance index) [11]: 22 and 21.9
TI (normalized tolerance index) [6]: 5.3
Ki [7]: 0.95 nM
TI (normalized tolerance index) [7]: 1
TI (tolerance index) ([7]; not normalized): 0.95E−3
Injury evaluation, scale 0-100% ([12]; Scenedesmus HPPD Event 1, 1.56 g/ha): 35%
Injury evaluation, scale 0-100% ([12]; Scenedesmus HPPD Event 1, 3.125 g/ha): 58%
Injury evaluation, scale 0-100% ([12]; Scenedesmus HPPD Event 1, 6.25 g/ha): 68%
Injury evaluation, scale 0-100% ([12]; Scenedesmus HPPD Event 2, 1.56 g/ha): 45%
Injury evaluation, scale 0-100% ([12]; Scenedesmus HPPD Event 2, 3.125 g/ha): 55%
Injury evaluation, scale 0-100% ([12]; Scenedesmus HPPD Event 2, 6.25 g/ha): 65%
Injury evaluation, scale 0-100% ([13]; Acidobacterium HPPD Event 1, 1.56 g/ha): 43%
Injury evaluation, scale 0-100% ([13]; Acidobacterium HPPD Event 1, 3.125 g/ha): 78%
Injury evaluation, scale 0-100% ([13]; Acidobacterium HPPD Event 1, 6.25 g/ha): 94%
Injury evaluation, scale 0-100% ([13]; Acidobacterium HPPD Event 2, 1.56 g/ha): 48%
Injury evaluation, scale 0-100% ([13]; Acidobacterium HPPD Event 2, 3.125 g/ha): 78%
Injury evaluation, scale 0-100% ([13]; Acidobacterium HPPD Event 2, 6.25 g/ha): 97%
Injury evaluation, scale 0-100% ([14]; Algoriphagus HPPD Event 1, 1.56 g/ha): 60%
Injury evaluation, scale 0-100% ([14]; Algoriphagus HPPD Event 1, 3.125 g/ha): 70%
Injury evaluation, scale 0-100% ([14]; Algoriphagus HPPD Event 1, 6.25 g/ha): 90%
Injury evaluation, scale 0-100% ([14]; Algoriphagus HPPD Event 2, 1.56 g/ha): 48%
Injury evaluation, scale 0-100% ([14]; Algoriphagus HPPD Event 2, 3.125 g/ha): 68%
Injury evaluation, scale 0-100% ([14]; Algoriphagus HPPD Event 2, 6.25 g/ha): 78%
Injury evaluation, scale 0-100% ([15]; 1.56 g/ha): 88%
Injury evaluation, scale 0-100% ([15]; 3.125 g/ha): 90%
Injury evaluation, scale 0-100% ([15]; 6.25 g/ha): 90%
TI (normalized tolerance index) [9]: 23.7
